# Source: PMC5601738, “Facile total synthesis of lysicamine and the anticancer activities of the Ru^II, Rh^III, Mn^II and Zn^II complexes of lysicamine” (Oncotarget, 2017)
# Tested on: apoptosis genes in HepG2 cells
# Assay: RT-qPCR array, human apoptosis PCR array (PAHS-012Z)
# Format: cell-based
# Settings: Hep-G2 cells, 14 μM, 24 h, vs control
compound,measurement,value
"COc1cc2ccnc3c2c(c1OC)-c1ccccc1C3=O.COc1cc2ccnc3c2c(c1OC)-c1ccccc1C3=O.COc1cc2ccnc3c2c(c1OC)-c1ccccc1C3=O.ClC(Cl)Cl.ClC(Cl)Cl.ClC(Cl)Cl.[Mn+2].[O-][Cl+3]([O-])([O-])[O-].[O-][Cl+3]([O-])([O-])[O-] [Complex 3, [Mn(LY)3](ClO4)2·3CHCl3]","Fold up/down-regulation, ABL1",1.14
same,"Fold up/down-regulation, ACTB",-3.23
same,"Fold up/down-regulation, AIFM1",1.39
same,"Fold up/down-regulation, AKT1",-1.50
same,"Fold up/down-regulation, APAF1",-1.08
same,"Fold up/down-regulation, B2M",1.32
same,"Fold up/down-regulation, BAD",-1.23
same,"Fold up/down-regulation, BAG1",-3.76
same,"Fold up/down-regulation, BAG3",1.12
same,"Fold up/down-regulation, BAK1",2.10
same,"Fold up/down-regulation, BAX",1.03
same,"Fold up/down-regulation, BCL2",1.08
same,"Fold up/down-regulation, BCL2A1",15.30
same,"Fold up/down-regulation, BCL2L1",-1.97
same,"Fold up/down-regulation, BCL2L2",1.01
same,"Fold up/down-regulation, BCL2L10",1.21
same,"Fold up/down-regulation, BCL2L11",2.71
same,"Fold up/down-regulation, BCL10",1.24
same,"Fold up/down-regulation, BFAR",1.36
same,"Fold up/down-regulation, BID",-1.24
same,"Fold up/down-regulation, BIK",3.02
same,"Fold up/down-regulation, BIRC2",1.65
same,"Fold up/down-regulation, BIRC3",-1.79
same,"Fold up/down-regulation, BIRC5",-1.29
same,"Fold up/down-regulation, BIRC6",1.22
same,"Fold up/down-regulation, BNIP2",1.48
same,"Fold up/down-regulation, BNIP3",1.82
same,"Fold up/down-regulation, BNIP3L",2.06
same,"Fold up/down-regulation, BRAF",1.10
same,"Fold up/down-regulation, CASP1",1.61
same,"Fold up/down-regulation, CASP2",-1.21
same,"Fold up/down-regulation, CASP3",1.46
same,"Fold up/down-regulation, CASP4",1.39
same,"Fold up/down-regulation, CASP5",1.47
same,"Fold up/down-regulation, CASP6",1.46
same,"Fold up/down-regulation, CASP7",1.23
same,"Fold up/down-regulation, CASP8",1.13
same,"Fold up/down-regulation, CASP9",3.47
same,"Fold up/down-regulation, CASP10",-1.45
same,"Fold up/down-regulation, CASP14",8.51
same,"Fold up/down-regulation, CD27",4.42
same,"Fold up/down-regulation, CD40",-1.09
same,"Fold up/down-regulation, CD40LG",1.16
same,"Fold up/down-regulation, CD70",-1.62
same,"Fold up/down-regulation, CFLAR",1.19
same,"Fold up/down-regulation, CIDEA",2.51
same,"Fold up/down-regulation, CIDEB",-1.33
same,"Fold up/down-regulation, CRADD",1.01
same,"Fold up/down-regulation, CYCS",2.27
same,"Fold up/down-regulation, DAPK1",-1.22
same,"Fold up/down-regulation, DFFA",1.10
same,"Fold up/down-regulation, DIABLO",1.68
same,"Fold up/down-regulation, FADD",1.24
same,"Fold up/down-regulation, FAS",-1.45
same,"Fold up/down-regulation, FASLG",1.37
same,"Fold up/down-regulation, GADD45A",3.98
same,"Fold up/down-regulation, GAPDH",-1.17
same,"Fold up/down-regulation, HPRT1",-1.87
same,"Fold up/down-regulation, HRK",49.72
same,"Fold up/down-regulation, IGF1R",-2.51
same,"Fold up/down-regulation, IL10",1.11
same,"Fold up/down-regulation, LTA",-1.40
same,"Fold up/down-regulation, LTBR",-1.24
same,"Fold up/down-regulation, MCL1",2.15
same,"Fold up/down-regulation, NAIP",-1.05
same,"Fold up/down-regulation, NFKB1",-1.85
same,"Fold up/down-regulation, NOD1",-1.30
same,"Fold up/down-regulation, NOL3",-1.07
same,"Fold up/down-regulation, PYCARD",2.80
same,"Fold up/down-regulation, RIPK2",1.45
same,"Fold up/down-regulation, RPLP0",1.17
same,"Fold up/down-regulation, TNF",16.66
same,"Fold up/down-regulation, TNFRSF1A",-1.06
same,"Fold up/down-regulation, TNFRSF1B",-1.05
same,"Fold up/down-regulation, TNFRSF9",110.29
same,"Fold up/down-regulation, TNFRSF10A",-1.02
same,"Fold up/down-regulation, TNFRSF10B",1.11
same,"Fold up/down-regulation, TNFRSF11B",3.22
same,"Fold up/down-regulation, TNFRSF21",3.02
same,"Fold up/down-regulation, TNFRSF25",2.68
same,"Fold up/down-regulation, TNFSF8",3.25
same,"Fold up/down-regulation, TNFSF10",1.70
same,"Fold up/down-regulation, TP53",-1.05
same,"Fold up/down-regulation, TP53BP2",1.53
same,"Fold up/down-regulation, TP73",1.38
same,"Fold up/down-regulation, TRADD",1.11
same,"Fold up/down-regulation, TRAF2",-1.21
same,"Fold up/down-regulation, TRAF3",1.01
same,"Fold up/down-regulation, XIAP",1.26
same,"FoldChange, ABL1 relative expression",1.14
same,"FoldChange, ACTB relative expression",0.31
same,"FoldChange, AIFM1 relative expression",1.39
same,"FoldChange, AKT1 relative expression",0.67
same,"FoldChange, APAF1 relative expression",0.92
same,"FoldChange, B2M relative expression",1.32
same,"FoldChange, BAD relative expression",0.81
same,"FoldChange, BAG1 relative expression",0.27
same,"FoldChange, BAG3 relative expression",1.12
same,"FoldChange, BAK1 relative expression",2.10
same,"FoldChange, BAX relative expression",1.03
same,"FoldChange, BCL2A1 relative expression",15.30
same,"FoldChange, BCL2L1 relative expression",0.51
same,"FoldChange, BCL2L2 relative expression",1.01
same,"FoldChange, BCL2L10 relative expression",1.21
same,"FoldChange, BCL2L11 relative expression",2.71
same,"FoldChange, BCL2 relative expression",1.08
same,"FoldChange, BCL10 relative expression",1.24
same,"FoldChange, BFAR relative expression",1.36
same,"FoldChange, BID relative expression",0.80
same,"FoldChange, BIK relative expression",3.02
same,"FoldChange, BIRC2 relative expression",1.65
same,"FoldChange, BIRC3 relative expression",0.56
same,"FoldChange, BIRC5 relative expression",0.77
same,"FoldChange, BIRC6 relative expression",1.22
same,"FoldChange, BNIP2 relative expression",1.48
same,"FoldChange, BNIP3L relative expression",2.06
same,"FoldChange, BNIP3 relative expression",1.82
same,"FoldChange, BRAF relative expression",1.10
same,"FoldChange, CASP1 relative expression",1.61
same,"FoldChange, CASP2 relative expression",0.83
same,"FoldChange, CASP3 relative expression",1.46
same,"FoldChange, CASP4 relative expression",1.39
same,"FoldChange, CASP5 relative expression",1.47
same,"FoldChange, CASP6 relative expression",1.46
same,"FoldChange, CASP7 relative expression",1.23
same,"FoldChange, CASP8 relative expression",1.13
same,"FoldChange, CASP9 relative expression",3.47
same,"FoldChange, CASP10 relative expression",0.69
same,"FoldChange, CASP14 relative expression",8.51
same,"FoldChange, CD27 relative expression",4.42
same,"FoldChange, CD40LG relative expression",1.16
same,"FoldChange, CD40 relative expression",0.92
same,"FoldChange, CD70 relative expression",0.62
same,"FoldChange, CFLAR relative expression",1.19
same,"FoldChange, CIDEA relative expression",2.51
same,"FoldChange, CIDEB relative expression",0.75
same,"FoldChange, CRADD relative expression",1.01
same,"FoldChange, CYCS relative expression",2.27
same,"FoldChange, DAPK1 relative expression",0.82
same,"FoldChange, DFFA relative expression",1.10
same,"FoldChange, DIABLO relative expression",1.68
same,"FoldChange, FADD relative expression",1.24
same,"FoldChange, FAS relative expression",0.69
same,"FoldChange, FASLG relative expression",1.37
same,"FoldChange, GADD45A relative expression",3.98
same,"FoldChange, GAPDH relative expression",0.86
same,"FoldChange, HPRT1 relative expression",0.54
same,"FoldChange, HRK relative expression",49.72
same,"FoldChange, IGF1R relative expression",0.40
same,"FoldChange, IL10 relative expression",1.11
same,"FoldChange, LTA relative expression",0.71
same,"FoldChange, LTBR relative expression",0.81
same,"FoldChange, MCL1 relative expression",2.15
same,"FoldChange, NAIP relative expression",0.95
same,"FoldChange, NFKB1 relative expression",0.54
same,"FoldChange, NOD1 relative expression",0.77
same,"FoldChange, NOL3 relative expression",0.93
same,"FoldChange, PYCARD relative expression",2.80
same,"FoldChange, RIPK2 relative expression",1.45
same,"FoldChange, RPLP0 relative expression",1.17
same,"FoldChange, TNF relative expression",16.66
same,"FoldChange, TNFRSF1A relative expression",0.94
same,"FoldChange, TNFRSF1B relative expression",0.96
same,"FoldChange, TNFRSF9 relative expression",110.29
same,"FoldChange, TNFRSF10A relative expression",0.98
same,"FoldChange, TNFRSF10B relative expression",1.11
same,"FoldChange, TNFRSF11B relative expression",3.22
same,"FoldChange, TNFRSF21 relative expression",3.02
same,"FoldChange, TNFRSF25 relative expression",2.68
same,"FoldChange, TNFSF8 relative expression",3.25
same,"FoldChange, TNFSF10 relative expression",1.70
same,"FoldChange, TP53BP2 relative expression",1.53
same,"FoldChange, TP53 relative expression",0.95
same,"FoldChange, TP73 relative expression",1.38
same,"FoldChange, TRADD relative expression",1.11
same,"FoldChange, TRAF2 relative expression",0.82
same,"FoldChange, TRAF3 relative expression",1.01
same,"FoldChange, XIAP relative expression",1.26
